From ChEMBL document CHEMBL4396901, “Discovery of Potent and Noncovalent Reversible EGFR Kinase Inhibitors of EGFRL858R/T790M/C797S” (ACS Med Chem Lett, 2019)
The source made the active and inactive calls. The calls are words filed in the database; no cut-off is given here.

Columns and labels:
[1] = test system: Epidermal growth factor receptor (Homo sapiens), P00533 [L858R,T790M,C797S]; experiment: (§1) Inhibition of recombinant human C-terminal His-tagged/N-terminal GST-tagged EGFR (668 to 1210 residues) T790M/L858R/C797S mutant expressed in baculovirus expression system using poly (Glu,Tyr) 4:1 as substrate incubated for 1 hr in presence of ATP by ELISA
Chain of Epidermal growth factor receptor (Homo sapiens), P00533 [L858R,T790M,C797S] (P00533 whole entry T790M/C797S/L858R, the tested form may be a part): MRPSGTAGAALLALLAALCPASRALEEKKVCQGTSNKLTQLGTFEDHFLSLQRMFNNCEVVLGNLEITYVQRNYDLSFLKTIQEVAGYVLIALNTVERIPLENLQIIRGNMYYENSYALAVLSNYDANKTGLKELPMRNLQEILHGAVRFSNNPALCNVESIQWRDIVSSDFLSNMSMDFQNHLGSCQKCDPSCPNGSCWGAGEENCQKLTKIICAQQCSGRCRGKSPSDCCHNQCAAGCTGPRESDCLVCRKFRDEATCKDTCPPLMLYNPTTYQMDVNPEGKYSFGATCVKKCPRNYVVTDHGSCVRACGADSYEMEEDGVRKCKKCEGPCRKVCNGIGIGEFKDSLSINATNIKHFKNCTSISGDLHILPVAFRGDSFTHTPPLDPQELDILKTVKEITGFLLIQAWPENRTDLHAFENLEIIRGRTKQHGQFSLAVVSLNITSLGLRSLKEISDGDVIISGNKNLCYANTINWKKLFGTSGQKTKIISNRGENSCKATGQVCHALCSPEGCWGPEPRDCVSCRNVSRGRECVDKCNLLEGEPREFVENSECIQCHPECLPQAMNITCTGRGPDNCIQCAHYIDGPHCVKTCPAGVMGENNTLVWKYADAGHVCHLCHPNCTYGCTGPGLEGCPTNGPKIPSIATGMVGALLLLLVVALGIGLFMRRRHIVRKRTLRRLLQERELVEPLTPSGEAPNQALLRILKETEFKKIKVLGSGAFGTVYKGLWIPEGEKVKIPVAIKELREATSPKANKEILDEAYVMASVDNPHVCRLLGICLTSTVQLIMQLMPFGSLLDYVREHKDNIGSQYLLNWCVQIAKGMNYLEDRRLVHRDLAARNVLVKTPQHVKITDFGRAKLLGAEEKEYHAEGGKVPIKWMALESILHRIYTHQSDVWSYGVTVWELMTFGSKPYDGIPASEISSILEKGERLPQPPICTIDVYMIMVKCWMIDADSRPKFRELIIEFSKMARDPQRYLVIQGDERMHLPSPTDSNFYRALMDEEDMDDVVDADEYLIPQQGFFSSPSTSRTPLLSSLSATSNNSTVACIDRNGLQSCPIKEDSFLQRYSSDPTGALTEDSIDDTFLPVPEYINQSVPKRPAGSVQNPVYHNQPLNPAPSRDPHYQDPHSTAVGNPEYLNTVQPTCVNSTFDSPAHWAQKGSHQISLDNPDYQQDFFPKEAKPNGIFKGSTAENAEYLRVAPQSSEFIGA

[2] = test system: BaF3; experiment: Cytotoxicity against mouse BAF3 cells incubated for 72 hrs by resazurin dye based assay; assay type: cell-based; details: BaF3, 72 h
[3] = biological target: Epidermal growth factor receptor (Homo sapiens, UniProt P00533, C797S/L858R/T790M); experiment: as §1
Chain of Epidermal growth factor receptor (P00533 whole entry T790M/C797S/L858R): as the sequence (P00533 whole entry T790M/C797S/L858R, the tested form may be a part) above

[4] = test system: Epidermal growth factor receptor (Homo sapiens), P00533 [L858R,T790M]; experiment: Inhibition of human EGFR T790M/L858R mutant using poly (Glu,Tyr) 4:1 as substrate incubated for 1 hr in presence of ATP by ELISA
Chain of Epidermal growth factor receptor (Homo sapiens), P00533 [L858R,T790M] (P00533 whole entry T790M/L858R, looked up): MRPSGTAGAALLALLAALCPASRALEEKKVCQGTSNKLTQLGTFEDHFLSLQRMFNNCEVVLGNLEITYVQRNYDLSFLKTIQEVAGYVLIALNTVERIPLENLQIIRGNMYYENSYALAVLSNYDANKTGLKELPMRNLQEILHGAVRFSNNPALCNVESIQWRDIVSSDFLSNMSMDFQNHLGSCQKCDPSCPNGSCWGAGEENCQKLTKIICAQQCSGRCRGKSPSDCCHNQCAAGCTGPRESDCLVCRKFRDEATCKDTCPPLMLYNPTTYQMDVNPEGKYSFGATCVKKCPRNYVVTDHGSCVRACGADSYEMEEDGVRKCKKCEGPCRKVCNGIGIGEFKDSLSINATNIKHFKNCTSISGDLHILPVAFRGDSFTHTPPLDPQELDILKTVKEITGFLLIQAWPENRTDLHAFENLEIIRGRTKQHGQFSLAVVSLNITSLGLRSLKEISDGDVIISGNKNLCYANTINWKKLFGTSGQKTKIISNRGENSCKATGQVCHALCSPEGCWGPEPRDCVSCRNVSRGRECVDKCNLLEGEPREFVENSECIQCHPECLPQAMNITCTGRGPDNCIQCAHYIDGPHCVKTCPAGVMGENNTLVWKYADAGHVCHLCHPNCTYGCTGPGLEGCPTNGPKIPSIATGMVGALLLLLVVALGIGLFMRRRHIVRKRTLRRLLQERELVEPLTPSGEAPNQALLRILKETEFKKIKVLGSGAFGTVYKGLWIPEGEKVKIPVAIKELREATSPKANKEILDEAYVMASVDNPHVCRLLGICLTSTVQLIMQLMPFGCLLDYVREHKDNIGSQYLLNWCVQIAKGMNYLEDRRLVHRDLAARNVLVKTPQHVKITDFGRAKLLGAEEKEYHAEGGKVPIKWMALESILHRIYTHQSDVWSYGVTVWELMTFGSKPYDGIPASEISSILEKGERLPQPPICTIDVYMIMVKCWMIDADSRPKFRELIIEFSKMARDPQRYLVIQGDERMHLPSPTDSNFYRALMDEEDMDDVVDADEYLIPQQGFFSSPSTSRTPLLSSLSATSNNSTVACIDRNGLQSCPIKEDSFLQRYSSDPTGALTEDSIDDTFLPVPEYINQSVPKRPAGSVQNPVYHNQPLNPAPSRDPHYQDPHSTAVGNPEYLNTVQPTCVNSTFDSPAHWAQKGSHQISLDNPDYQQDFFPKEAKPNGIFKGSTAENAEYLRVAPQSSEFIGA

Compound	inhibition [1]	further results
COc1cc2c(Nc3cc(NC(=O)c4ccccc4)ccc3F)ncnc2cc1OCC1CCN(C)CC1	inactive	
COc1cc(N2CCC(N3CCN(C)CC3)CC2)ccc1Nc1ncc(Cl)c(Nc2ccccc2P(C)(C)=O)n1 [BRIGATINIB]		IC50 [2]: 7310 nM
COc1cc2c(Nc3cc(NC(=O)CC4Cc5ccccc5C4)ccc3F)ncnc2cc1OCC1CCN(C)CC1	inactive	
COc1cc2c(Nc3ccc(NC(=O)C(C4CCCCC4)N4Cc5ccccc5C4=O)cc3F)ncnc2cc1OCC1CCN(C)CC1 (stereo unspecified)		IC50 [3]: 180 nM
COc1cc2nc(N)nc(Nc3ccc(NC(=O)C(c4ccccc4)N4Cc5ccccc5C4=O)cc3F)c2cc1OC (stereo unspecified)	inactive	inhibition [4]: inactive
O=C(Nc1nccs1)C(c1cc(F)ccc1O)N1Cc2ccccc2C1=O (stereo unspecified)		IC50 [2]: > 10000 nM
COc1cc2c(Nc3ccc(NC(=O)c4ccccc4)cc3F)ncnc2cc1OCC1CCN(C)CC1	inactive	
COc1cc2c(Nc3ccc(NC(=O)C(c4ccccc4)N4Cc5ccccc5C4=O)cc3F)ncnc2cc1OCC1CCN(C)CC1 (stereo unspecified)		IC50 [3]: 9.3 nM
COc1cc2c(Nc3cc(NC(=O)Cc4ccccc4)ccc3F)ncnc2cc1OCC1CCN(C)CC1	inactive	
COc1cc2c(Nc3ccc(NC(=O)C(c4ccccc4)C(C)C)cc3F)ncnc2cc1OCC1CCN(C)CC1 (stereo unspecified)	inactive	
